The test has as its system Toledo Cells. The test can be described thus: FACS-based phagocytosis assay, macrophages cocultured with Toledo cells. The test is classed as cell-based, Human. The procedure: FACS-based phagocytosis assays were performed to evaluate the phagocytic abilities of macrophages.
Toledo Cells (a tumor cell line, as a target) were labelled with CellTrace™ Far Red and plated into 96-well plate at a density of 0.15×10^6 cells/well for 12 hours. The Macrophages were prepared as discussed above and then labelled with CellTrace Violet. Next, the macrophages were added into the plate as an effector at an effector:target (Toledo) ratio of 1:3, giving a final density of macrophages at 0.05×10^6 cells/well. Macrophages and tumor cells were cocultured for 2-6 h at 37° C. in the presence of the indicated treatments (small molecule therapeutic agents, CD47 antibody, CD20 antibody or combinations). The incubation time depending on the phagocytosis rate, expecting phagocytosis of 5-20% cells.
Then, cells were acquired and data were analyzed.

We go through one compound from US20230174649A1, “PHARMACEUTICAL COMPOSITIONS CONTAINING ANTI-CD47 ANTIBODIES” (I-MAB BIOPHARMA US LIMITED, priority 2020, published 2023).

Consider `Nc1ncn([C@@H]2O[C@H](CO)[C@@H](O)[C@H]2O)c(=O)n1` [Azacitidine], for which the “macrophage phagocytosis (untreated = 1.00)” value (“macrophage phagocytosis” below) runs as follows: (Cpd 0.0016 uM, T4J = 0, R = 0) 1.09; (Cpd 0.0016 uM, T4J = 0, R = 0.01 ug/ml) 1.63; (Cpd 0.0016 uM, T4J = 0.1 ug/ml, R = 0) 2.66; (Cpd 0.0016 uM, T4J = 0.1 ug/ml, R = 0.01 ug/ml) 3.26; (Cpd 0.008 uM, T4J = 0, R = 0) 1.07; (Cpd 0.008 uM, T4J = 0, R = 0.01 ug/ml) 1.73. Also, the “macrophage phagocytosis” value (Cpd 0.008 uM, T4J = 0.1 ug/ml, R = 0) is reported as 2.69; the “macrophage phagocytosis” value (Cpd 0.008 uM, T4J = 0.1 ug/ml, R = 0.01 ug/ml) was found to be 3.18; the “macrophage phagocytosis” value (Cpd 0.04 uM, T4J = 0, R = 0) was 1.12; the “macrophage phagocytosis” value (Cpd 0.04 uM, T4J = 0, R = 0.01 ug/ml) was determined as 1.71; the “macrophage phagocytosis” value (Cpd 0.04 uM, T4J = 0.1 ug/ml, R = 0) is on record as 2.76; the “macrophage phagocytosis” value (Cpd 0.04 uM, T4J = 0.1 ug/ml, R = 0.01 ug/ml) stood at 3.29. The “macrophage phagocytosis” value runs as follows: (Cpd 0.2 uM, T4J = 0, R = 0) 1.16; (Cpd 0.2 uM, T4J = 0, R = 0.01 ug/ml) 1.69; (Cpd 0.2 uM, T4J = 0.1 ug/ml, R = 0) 2.57; (Cpd 0.2 uM, T4J = 0.1 ug/ml, R = 0.01 ug/ml) 3.13; (Cpd 1 uM, T4J = 0, R = 0) 1.30; (Cpd 1 uM, T4J = 0, R = 0.01 ug/ml) 1.94. Further, the “macrophage phagocytosis” value is listed as 2.70 (Cpd 1 uM, T4J = 0.1 ug/ml, R = 0) and 3.45 (Cpd 1 uM, T4J = 0.1 ug/ml, R = 0.01 ug/ml). For the same compound, the “phagocytic ability of macrophages” value (agent itself or antibody combination) is “can also enhance the phagocytic ability of macrophages”; the “phagocytic ability of macrophages” value (triple combination: T4J, Rituximab and the small molecule) is on record as “enhances the phagocytic ability of macrophages much higher”.
